Source: the Deep4Chem optical property database
Blank lines part the entries; values can stand above or below the compound they belong to.

Test: photoluminescence quantum yield (fraction); solvent given as SMILES
[1] = in O=P(c1ccccc1)(c1ccccc1)c1ccccc1Oc1ccccc1P(=O)(c1ccccc1)c1ccccc1

SMILES: COc1ccc(C2=[N+]3C(=Nc4c(-c5cc(OC)c(OC)c(OC)c5)c(-c5ccc(C(C)(C)C)cc5)c(-c5ccc(OC)cc5)n4[B-]3(F)F)C(c3cc(OC)c(OC)c(OC)c3)=C2c2ccc(C(C)(C)C)cc2)cc1
photoluminescence quantum yield (in Cc1ccccc1): 0.04

SMILES: CC(C)(C)c1ccc(-c2nc3ccccc3nc2-c2cc(-c3nc4ccccc4nc3-c3ccc(C(C)(C)C)cc3)cc(-n3c4ccccc4c4ccccc43)c2)cc1
photoluminescence quantum yield (in Cc1ccccc1): 0.35

photoluminescence quantum yield (in ClCCl): 0.16
SMILES: CCCCCCN1C(=O)c2cccc3c(-c4ccc(-c5cc(-c6cccc7ccccc67)nn5-c5ccccc5)s4)ccc(c23)C1=O

photoluminescence quantum yield (in ClCCl): 0.16
SMILES: O=[N+]([O-])c1ccc(-c2cn3ccc[n+]3[n-]2)cc1

photoluminescence quantum yield (in ClC(Cl)Cl): 0.075
SMILES: CC(C)(C)c1ccc2c(c1)oc1nc3oc4ccc(-n5c6ccccc6c6ccccc65)cc4c3cc12

photoluminescence quantum yield (in CC#N): 0.84
SMILES: F[B-]1(F)n2c(c(-c3cccs3)c3c2-c2ccccc2CC3)C=C2C(c3cccs3)=C3CCc4ccccc4C3=[N+]21

photoluminescence quantum yield (in ClCCl): 0.91
photoluminescence quantum yield (in c1cc(-n2c3ccccc3c3ccccc32)cc(-n2c3ccccc3c3ccccc32)c1): 0.9
SMILES: c1ccc(N(c2ccccc2)c2ccc(-c3ccc4c(c3)C3(c5ccccc5Oc5ccccc53)c3cc(-c5ccc(N(c6ccccc6)c6ccccc6)cc5)ccc3-4)cc2)cc1

photoluminescence quantum yield (in CCCCCC): 0.28
SMILES: CC(C)(C)c1cc2cc(N(c3ccccc3)c3ccccc3)c3cc(C(C)(C)C)cc4cc(N(c5ccccc5)c5ccccc5)c(c1)c2c43

photoluminescence quantum yield (in CCCCCC): 0.21
SMILES: CC(C)[Si](C#Cc1c2nc3c(nc2c(C#C[Si](C(C)C)(C(C)C)C(C)C)c2nc4ccccc4nc12)C1c2ccccc2C3c2ccccc21)(C(C)C)C(C)C

photoluminescence quantum yield (in ClC(Cl)Cl): 0.19
SMILES: N#CC(C#N)=Cc1ccc(-c2ccc(N(c3ccccc3)c3ccccc3)cc2)cc1

SMILES: CCCCN1/C(=C\c2c(-c3ccc(N(C)C)cc3)c(=O)c2=O)C=Cc2ccccc21
photoluminescence quantum yield (in C1CCCCC1): 0.0242
photoluminescence quantum yield (in Cc1ccccc1): 0.0163
photoluminescence quantum yield (in ClCCl): 0.001

photoluminescence quantum yield (in ClCCl): 0.76
SMILES: COc1cc(-c2cnc(-c3cnc4ccccc4c3)o2)cc(OC)c1OC

photoluminescence quantum yield (in ClCCl): 0.51
SMILES: CCCCCCOc1ccc2c(c1)-c1cc3c(cc1[Si]2(C)C)-c1ccccc1[Si]3(C)C

photoluminescence quantum yield (in CCOC(C)=O): 0.99
SMILES: CCn1c(-c2ccc(-c3ccc4c(c3)C(C)(C)c3ccccc3-4)cc2)c(-c2ccc3ccccc3c2)c(-c2ccc3ccccc3c2)c1-c1ccc(-c2ccc3c(c2)C(C)(C)c2ccccc2-3)cc1

photoluminescence quantum yield (in ClC(Cl)Cl): 0.56
SMILES: Clc1ccc(-c2nc(-c3ccccc3)c(N(c3ccccc3)c3ccccc3)s2)cc1

photoluminescence quantum yield (in CC#N): 0.028
SMILES: Cc1cc2nc3[nH]c(=O)[nH]c(=O)c3nc2cc1C

photoluminescence quantum yield (in CC#N): 0.03
photoluminescence quantum yield (in CCO): 0.04
photoluminescence quantum yield (in ClCCl): 0.06
photoluminescence quantum yield (in O): 0.007
SMILES: C=CCNc1ccc2ccc3oc4cc(=O)ccc-4nc3c2c1

SMILES: c1ccc(-c2nc(-c3ccccc3)nc(-c3cc(-n4c5ccccc5c5ncccc54)c(-n4c5ccccc5c5ncccc54)c(-n4c5ccccc5c5ncccc54)c3)n2)cc1
photoluminescence quantum yield (in O=P(c1ccccc1)(c1ccccc1)c1ccc2oc3ccc(P(=O)(c4ccccc4)c4ccccc4)cc3c2c1): 0.54

photoluminescence quantum yield (in C1CCOC1): 0.459
SMILES: COc1cc2oc(=O)c3c4ccc(C=O)cc4c4ccc5cccc6c(c1)c2c3c4c56

photoluminescence quantum yield (in ClC(Cl)Cl): 0.2
SMILES: F[B-]1(F)n2c(ccc2-c2ccccc2)C(c2ccc(I)cc2)=C2C=CC(c3ccccc3)=[N+]21

photoluminescence quantum yield (in C1CCOC1): 0.01
SMILES: O=C1c2cc(-c3ccccc3)ccc2-c2ccc(-c3ccccc3)cc21

photoluminescence quantum yield (in C1COCCO1): 0.004
SMILES: COc1ccc(C2=C/C(=C\c3ccccc3)C(=O)O2)cc1OC

photoluminescence quantum yield (in CC(C)(C)O): 0.12
photoluminescence quantum yield (in CC(C)CO): 0.09
photoluminescence quantum yield (in CC(C)O): 0.08
photoluminescence quantum yield (in CCCCO): 0.14
photoluminescence quantum yield (in CCCO): 0.15
photoluminescence quantum yield (in CCO): 0.15
photoluminescence quantum yield (in CN(C)C=O): 0.05
photoluminescence quantum yield (in CNC=O): 0.03
photoluminescence quantum yield (in CO): 0.22
photoluminescence quantum yield (in NC=O): 0.26
photoluminescence quantum yield (in O): 0.55
SMILES: COCCOCCOc1cc(C=O)c(OCCOCCOC)cc1C=O

SMILES: O=C(c1ccc(-n2c3ccccc3c3ccccc32)cc1)c1ccc(-n2c3ccccc3c3ccccc32)cc1
photoluminescence quantum yield (in Cc1ccccc1): 0.21
photoluminescence quantum yield [1]: 0.55

photoluminescence quantum yield (in ClCCl): 0.43
SMILES: COC(=O)c1ccc(C2=C(/C=C/c3ccc(OC)cc3)O[B-](F)(F)[O+]=C2/C=C/c2ccc(OC)cc2)cc1

photoluminescence quantum yield (in ClCCl): 0.00173
SMILES: COc1cc2c(cc1OC)C1=C[C@H](c3ccccc3)C3(C(C#N)=C(C#N)N1CC2)c1ccccc1-c1ccccc13

SMILES: O=C(O)C1=C(C(=O)O)C2=C[C@H]3c4ccccc4[C@]2([Se]1)c1ccccc13
photoluminescence quantum yield (in ClCCl): 0.38

photoluminescence quantum yield (in C1CCOC1): 0.55
SMILES: C(=C\c1ccccn1)/c1ccc(N(c2ccc(/C=C/c3ccccn3)cc2)c2ccc(-c3nc4ccccc4nc3-c3ccc(N(c4ccc(/C=C/c5ccccn5)cc4)c4ccc(/C=C/c5ccccn5)cc4)cc3)cc2)cc1

photoluminescence quantum yield (in ClC(Cl)Cl): 0.017
SMILES: C=C[Si](c1c2ccccc2cc2ccccc12)(c1c2ccccc2cc2ccccc12)c1c2ccccc2cc2ccccc12

photoluminescence quantum yield (in CCCCCC): 0.93
photoluminescence quantum yield (in CO): 0.99
photoluminescence quantum yield (in ClCCl): 0.87
SMILES: CC1=CC(C)=[N+]2C1=Cc1cccn1[B-]2(F)F

photoluminescence quantum yield (in C1CCOC1): 0.145
SMILES: C(=C(c1ccccc1)c1ccccc1)c1ccc(-c2ccc(-c3nc4c5ccccc5c5ccccc5c4n3-c3cccc(-c4ccc(C=C(c5ccccc5)c5ccccc5)cc4)c3)cc2)cc1

photoluminescence quantum yield (in CC#N): 0.08
photoluminescence quantum yield (in CCCCCC): 0.2
SMILES: Cc1cccc(C)c1Nc1ccc(/C=C/c2ccc3ccccc3c2)cc1

photoluminescence quantum yield (in ClC(Cl)Cl): 0.11
SMILES: COc1ccc2c(c1)CCc1c(-c3ccccc3)c3n(c1-2)[B-](F)(F)[N+]1=c2ccc4ccccc4c2=C(c2ccccc2)C1=N3

photoluminescence quantum yield (in CC#N): 0.456
SMILES: COc1ccccc1-n1nc(C#N)c(N2CCCC2)n1

SMILES: Fc1ccc(-c2cc3ccc4cc(-c5ccc(F)cc5)cc5ccc(c2)c3c45)cc1
photoluminescence quantum yield (in C1CCCCC1): 0.04
photoluminescence quantum yield (in C1CCOC1): 0.07
photoluminescence quantum yield (in CC#N): 0.08
photoluminescence quantum yield (in CCCCCC): 0.02
photoluminescence quantum yield (in CCO): 0.05
photoluminescence quantum yield (in CN(C)C=O): 0.09
photoluminescence quantum yield (in CO): 0.05
photoluminescence quantum yield (in Cc1ccccc1): 0.07
photoluminescence quantum yield (in ClC(Cl)Cl): 0.04
photoluminescence quantum yield (in ClCCl): 0.05

photoluminescence quantum yield (in ClCCl): 0.13
SMILES: CC(C)[Si](C#Cc1c2cc3ccccc3cc2c(C#C[Si](C)(C)C)c2cc3ccccc3cc12)(C(C)C)C(C)C

photoluminescence quantum yield (in CCCCCCC): 0.65
SMILES: c1cc2c3c(cccc3c1)-c1cc3c(ccc4ccccc43)cc1-2

photoluminescence quantum yield (in CCO): 0.6
photoluminescence quantum yield (in ClC(Cl)Cl): 0.31
SMILES: CCOc1ccc2c(-c3nc(-c4ccccc4)no3)cc(=O)oc2c1

photoluminescence quantum yield (in ClC(Cl)Cl): 0.22
SMILES: CCCCCCN1C(=O)c2cccc3c(-c4sc(-c5ccc6c7c(cccc57)C(=O)N(CCCCCC)C6=O)c5c4OCCO5)ccc(c23)C1=O

photoluminescence quantum yield (in C1CCOC1): 0.84
SMILES: C[Si](C)(C)c1ccc(-c2ccc(-c3ccc(-c4ccc(-c5ccc([Si](C)(C)C)cc5)cc4)c4nsnc34)cc2)cc1

SMILES: Cc1cc(-c2nc(-c3ccccc3)nc(-c3ccccc3)n2)ccc1-n1c2ccccc2c2cc3c(cc21)C1c2ccccc2C3c2ccccc21
photoluminescence quantum yield (in Cc1ccccc1): 0.6
photoluminescence quantum yield [1]: 0.32

photoluminescence quantum yield (in CO): 0.81
SMILES: CC1=CC(/C=C/c2ccc(OCCCN=[N+]=[N-])cc2)=[N+]2C1=C(c1ccc(N3CCCCC3)cc1)c1c(C)cc(C)n1[B-]2(F)F

photoluminescence quantum yield (in ClCCl): 0.62
SMILES: CCCCn1c2ccccc2c2ccc(C#Cc3ccc4ccc5cccc6ccc3c4c56)cc21

photoluminescence quantum yield (in CC#N): 0.45
SMILES: CCOC(=O)c1c2c3c(ccc(Br)c3c3cc4ccccc4cc13)N(C)C2=O

SMILES: CCCC1=Cc2nc1ccc1[nH]c(cc1CCOC)c1nc(ccc3[nH]c2cc3CCC)C(CCOC)=C1
photoluminescence quantum yield (in Cc1ccccc1): 0.54
